Assay results from EP0129667A1, “Compounds and pharmaceutical compositions for treatment of hypoovarianism” (Takeda Chemical Industries, Ltd., priority 1983, dated 1985).

Key:
[1] = system: young oophorectomized rats; test: E activity-potentiating effect in young oophorectomized rats (uterine wet weight); format: in vivo, Spraque-Dawley rats; conditions: 3 days; for increase of uterine weight by the compound alone: without estrone; for Uterine wet weight (mg ± S.D.): autopsy on 4th day
Method: Spraque-Dawley rats, 33 days of age and 11 days after oophorectomy for elimination of endogenous E activity, were assigned to groups of 5 to 7 individuals and treated subcutaneously with solutions of esterone in sesame oil or orally with suspensions of Compound A in 1% hydroxypropylcellulose solution, either independently or in combination, for 3 days. On the 4th day, each animal was autopsied and its uterine wet weight was recorded. […] Spraque-Dawley rats, 33 days of age and 11 days after oophorectomy for elimination of endogenous E activity, were assigned to groups of 5 to 7 individuals and treated subcutaneously with solutions of esterone in sesame oil or orally with suspensions of Compound B in 1% hydroxypropylcellulose solution, either independently or in combination, for 3 days. On the 4th day, each animal was autopsied and its uterine wet weight was recorded.

Spraque-Dawley rats = test: Acute toxicity in rats; format: in vivo; conditions: 5-week-old Spraque-Dawley rats, 14 days observation, LD50 could not be calculated
Method: (§1) Five-week-old ICR mice and 5-week-old Spraque-Dawley rats were used in groups of 10 males and 10 females, and suspensions of compound A or B in olive oil were administered orally [2,500, 5,000 and 10,000 mg/kg of each compound] or subcutaneously (1,250, 2,500 and 5,000 mg/kg). The animals were kept under observation for 14 days.

ICR mice = test: Acute toxicity in mice; format: in vivo; conditions: 5-week-old ICR mice, 14 days observation, LD50 could not be calculated
Method: as §1

[2] = oral 2,500, 5,000 and 10,000 mg/kg in olive oil
[3] = subcutaneous 1,250, 2,500 and 5,000 mg/kg in olive oil

## O=c1c(-c2ccccc2)coc2cc(O)ccc12 [Compound A, 7-hydroxy-isoflavone]
[1]; Compound A at 50 and 100 mg/kg oral with estrone subcutaneous
  potentiation of the uterine weight increasing action of estrone: potentiated the uterine weight increasing action of estrone
[1]; Compound A at 50 and 100 mg/kg oral
  increase of uterine weight by the compound alone: did not cause an increase of uterine weight
[1]; Table 1, Compound A 50 mg/kg daily oral, estrone 0
  Uterine wet weight (mg ± S.D.): 35.3 ± 1.7 mg
[1]; Table 1, Compound A 100 mg/kg daily oral, estrone 0
  Uterine wet weight (mg ± S.D.): 35.9 ± 1.0 mg
[1]; Table 1, estrone 1.0 µg/kg daily subcutaneous + Compound A 50 mg/kg daily oral
  Uterine wet weight (mg ± S.D.): 60.8 ± 4.1 mg
[1]; Table 1, estrone 1.0 µg/kg daily subcutaneous + Compound A 100 mg/kg daily oral
  Uterine wet weight (mg ± S.D.): 70.6 ± 2.7 mg

## C[C@]12CC[C@@H]3c4ccc(O)cc4CC[C@H]3[C@@H]1CCC2=O [estrone, reference compound]
[1]; Table 1, estrone 1.0 µg/kg daily subcutaneous alone (Compound A 0)
  Uterine wet weight (mg ± S.D.): 52.6 ± 2.3 mg
[1]; Table 2, estrone 0.5 µg/kg daily subcutaneous alone (Compound B 0)
  Uterine wet weight (mg ± S.D.): 36.3 ± 1.9 mg
[1]; Table 2, estrone 1.0 µg/kg daily subcutaneous alone (Compound B 0)
  Uterine wet weight (mg ± S.D.): 51.9 ± 4.2 mg

## CC(C)Oc1ccc2c(=O)c(-c3ccccc3)coc2c1 [Compound B, 7-isopropyloxy-isoflavone]
Spraque-Dawley rats; [2]
  deaths and toxic symptoms (acute toxicity): None of the groups showed deaths nor toxic symptoms
Spraque-Dawley rats; [3]
  deaths and toxic symptoms (acute toxicity): None of the groups showed deaths nor toxic symptoms
ICR mice; [2]
  deaths and toxic symptoms (acute toxicity): None of the groups showed deaths nor toxic symptoms
ICR mice; [3]
  deaths and toxic symptoms (acute toxicity): None of the groups showed deaths nor toxic symptoms
[1]; Compound B at 50 and 200 mg/kg oral with estrone subcutaneous
  potentiation of the uterine weight increasing action of estrone: potentiated the uterine weight increasing action of estrone
[1]; Compound B at 50 and 200 mg/kg oral
  increase of uterine weight by the compound alone: did not cause an increase of uterine weight
[1]; Table 2, Compound B 50 mg/kg daily oral, estrone 0
  Uterine wet weight (mg ± S.D.): 32.2 ± 1.3 mg
[1]; Table 2, Compound B 200 mg/kg daily oral, estrone 0
  Uterine wet weight (mg ± S.D.): 34.7 ± 1.2 mg
[1]; Table 2, estrone 0.5 µg/kg daily subcutaneous + Compound B 50 mg/kg daily oral
  Uterine wet weight (mg ± S.D.): 39.6 ± 2.4 mg
[1]; Table 2, estrone 0.5 µg/kg daily subcutaneous + Compound B 200 mg/kg daily oral
  Uterine wet weight (mg ± S.D.): 51.3 ± 5.3 mg
[1]; Table 2, estrone 1.0 µg/kg daily subcutaneous + Compound B 50 mg/kg daily oral
  Uterine wet weight (mg ± S.D.): 58.2 ± 2.6 mg
[1]; Table 2, estrone 1.0 µg/kg daily subcutaneous + Compound B 200 mg/kg daily oral
  Uterine wet weight (mg ± S.D.): 71.5 ± 7.4^+ mg
